Measurements reported in ChEMBL document CHEMBL3259816, “Interactions of cyclic and non-cyclic naphthalene diimide derivatives with different nucleic acids” (Bioorg Med Chem, 2014).
The source made the active and inactive calls. The rule behind the calls is not given here.

Legend:
[1] = Binding affinity to double strand 5'-GGGAGGTTTCGC-3' and 5'-GCGAAACCTCCC-3' DNA (unknown origin) by Benesi-Hildebrand method in presence of Na+
[2] = Binding affinity to double strand 5'-GGGAGGTTTCGC-3' and 5'-GCGAAACCTCCC-3' DNA (unknown origin) by Benesi-Hildebrand method in presence of K+
[3] = Binding affinity to double strand 5'-GGGAGGTTTCGC-3' and 5'-GCGAAACCTCCC-3' DNA (unknown origin) assessed as change in melting temperature by spectrophotometry in presence of K+
[4] = system: Nucleic Acid; test: Binding affinity to double strand 5'-GGGAGGTTTCGC-3' and 5'-GCGAAACCTCCC-3' DNA (unknown origin) assessed as DNA intercalation at 0.5 to 6.75 uM by circular dichroism analysis in presence of Na+; assay type: nucleic-acid assay
[5] = Binding affinity to double strand 5'-GGGAGGTTTCGC-3' and 5'-GCGAAACCTCCC-3' DNA (unknown origin) assessed as change in melting temperature by spectrophotometry in presence of Na+
[6] = Binding affinity to 5'-AGGG(TTAGGG)3-3' DNA (unknown origin) by Benesi-Hildebrand method in presence of K+
[7] = system: Calf thymus DNA; test: Binding affinity to calf thymus DNA assessed as DNA intercalation at 5 to 50 uM by circular dichroism analysis in presence of NaCl; assay type: nucleic-acid assay; conditions: Bos taurus
[8] = Binding affinity to 5'-AGGG(TTAGGG)3-3' DNA (unknown origin) assessed as change in melting temperature by spectropolarimetry in presence of Na+
[9] = system: Nucleic Acid; test: Binding affinity to poly (dG-dC)2 dsDNA (unknown origin) assessed as DNA intercalation at 5 to 50 uM by circular dichroism analysis in presence of NaCl; assay type: nucleic-acid assay
[10] = Stabilization of 5'-AGGG(TTAGGG)3-3' DNA (unknown origin) assessed as G-quadruplex formation at 1:0.3 to 1:4.5 DNA/ligand molar ratio by circular dichroism analysis in presence of NaCl
[11] = Binding affinity to poly (dA-dT)2 dsDNA (unknown origin) assessed as change in melting temperature at 1:0.1 DNA/ligand ratio by absorbance melting method in presence of Na+
[12] = system: Escherichia coli; test: Binding affinity to Escherichia coli pUC19 DNA assessed as formation of supercoiled DNA at 0.4 to 2.4 uM after 1 hr by agarose gel electrophoresis
[13] = Inhibition of telomerase (unknown origin) incubated for 60 mins at 30 degC followed by 5 mins at 95 degC by TRAP assay; design: species or system Homo sapiens
[14] = Binding affinity to 5'-AGGG(TTAGGG)3-3' DNA (unknown origin) assessed as change in melting temperature by spectropolarimetry in presence of K+
[15] = system: Nucleic Acid; test: Binding affinity to double strand 5'-GGGAGGTTTCGC-3' and 5'-GCGAAACCTCCC-3' DNA (unknown origin) assessed as DNA intercalation at 0.5 to 6.75 uM by circular dichroism analysis in presence of K+; assay type: nucleic-acid assay
[16] = Binding affinity to poly (dA-dT)2 dsDNA (unknown origin) assessed as change in melting temperature at 1:0.05 DNA/ligand ratio by absorbance melting method in presence of Na+
[17] = system: Nucleic Acid; test: Binding affinity to double strand 5'-GGGAGGTTTCGC-3' and 5'-GCGAAACCTCCC-3' DNA (unknown origin) assessed as DNA intercalation at 0.75 to 11.25 uM by circular dichroism analysis in presence of K+; assay type: nucleic-acid assay
[18] = Binding affinity to poly (dA-dT)2 dsDNA (unknown origin) assessed as change in melting temperature at 1:0.3 DNA/ligand ratio by absorbance melting method in presence of Na+
[19] = system: Nucleic Acid; test: Binding affinity to double strand 5'-GGGAGGTTTCGC-3' and 5'-GCGAAACCTCCC-3' DNA (unknown origin) assessed as DNA intercalation at 0.75 to 11.25 uM by circular dichroism analysis in presence of Na+; assay type: nucleic-acid assay
[20] = system: Nucleic Acid; test: Binding affinity to poly (dA-dT)2 dsDNA (unknown origin) assessed as DNA intercalation at 5 to 50 uM by circular dichroism analysis in presence of NaCl; assay type: nucleic-acid assay
[21] = system: Escherichia coli; test: Binding affinity to Escherichia coli pUC19 DNA assessed as formation of supercoiled DNA at 1 to 5 uM after 1 hr by agarose gel electrophoresis
[22] = Stabilization of 5'-AGGG(TTAGGG)3-3' DNA (unknown origin) assessed as G-quadruplex formation at 1:0.3 to 1:4.5 DNA/ligand molar ratio by circular dichroism analysis in presence of KCl
[23] = Binding affinity to 5'-AGGG(TTAGGG)3-3' DNA (unknown origin) by Benesi-Hildebrand method in presence of Na+
[24] = Binding affinity to 5'-AGGG(TTAGGG)3-3' DNA (unknown origin) assessed as assessed as G-quadruplex formation at 2:1 DNA/ligand molar ratio by circular dichroism analysis in presence of KCl
[25] = Binding affinity to poly (dA-dT)2 dsDNA (unknown origin) assessed as change in melting temperature at 1:0.15 DNA/ligand ratio by absorbance melting method in presence of Na+

| Compound | Kb [1] | Kb [2] | ΔTm [3] | Activity [4] | ΔTm [5] | Kb [6] | Activity [7] | ΔTm [8] | Activity [9] | Activity [10] | ΔTm [11] | Activity [12] | EC50 [13] | ΔTm [14] | Activity [15] | ΔTm [16] | Activity [17] | ΔTm [18] | Activity [19] | Activity [20] | also measured |
| --- | --- | --- | --- | --- | --- | --- | --- | --- | --- | --- | --- | --- | --- | --- | --- | --- | --- | --- | --- | --- | --- |
| CN(C)CCCN1C(=O)c2ccc3c4c(ccc(c24)C1=O)C(=O)N(CCCN(C)C)C3=O | 1 ×10⁶ /M | 1 ×10⁶ /M | 5 °C | Active | 5 °C | 1.4 ×10⁶ /M | Active | 1 °C | Active | Active | 4 °C | Active | 6 µM | 6 °C | Active | 2 °C | Active | 13 °C | Active | Active | Activity [21]: Active; Activity [22]: Active; Kb [23]: 0.7 ×10⁶ /M; Activity [24]: Active; ΔTm [25]: 7 °C |
| O=C1NCCCN2CCN(CCCN3C(=O)c4ccc5c6c(ccc(c46)C3=O)C(=O)N(CCCN3CCN(CCCNC(=O)c4ccc1cc4)CC3)C5=O)CC2 | 2.5 ×10⁶ /M | 2.6 ×10⁶ /M | 10 °C | Active | 10 °C | 3.7 ×10⁶ /M | Active | 3 °C | Active | Active | 14 °C | Active | 0.35 µM | 9 °C | Active | 9 °C | Active | 24 °C | Active | Active | Activity [21]: Active; Activity [22]: Active; Kb [23]: 0.9 ×10⁶ /M; Activity [24]: Active; ΔTm [25]: 18 °C |
